Legend:
[1] = acute toxicity (delayed toxicity in mice after 20 days), i.p. in rape oil; assay type: in vivo; settings: mouse, ip
Description: (§1) The toxicity of the polyene compound of formula I is slight.

mice = experiment: as above; assay type: in vivo
Description: as §1

Structure (SMILES): COC(C)C1=C(C=CC(C)=CC=CC(C)=CC(=O)O)C(C)(C)CC1 (centres unmarked) [9-[2-(1-methoxyethyl)-5,5-dimethyl-cyclopent-1-en-1-y1]-3,7-dimethyl-nona-2,4,6,8-tetraen-1-acid]
- LD50 at 24 h ([1]; after 1 day): > 4000 mg/kg
- LD50 at 240 h ([1]; after 10 days): 350 mg/kg
- LD10 (mice; after 1 day): > 4000 mg/kg
- LD90 (mice; after 1 day): > 4000 mg/kg
- LD10 (mice; after 10 days): 290 mg/kg
- LD90 (mice; after 10 days): 430 mg/kg
- LD10 (mice; after 20 days): 290 mg/kg
- LD90 (mice; after 20 days): 430 mg/kg

From patent publication US4044051A, “9[2-(1-Al koxy-ethyl)-5,5-dimethyl-cyclopent-1-en-1-yl]-3,7-dimethyl-nona-2,4,6,8-t etraen acid compounds” (Hoffmann-La Roche Inc., priority 1971, dated 1977)
